Measurements taken from patent US20250352561A1, “COMPOSITIONS AND METHODS USING TETRAHYDROCANNABINOL AND COMPOSITIONS INCLUDING SAME FOR TREATING INDICATIONS INVOLVING INFLAMMATION” (priority 2023, published 2025).
Where a name gives a salt, the structure may show the parent alone. Read-outs that look alike come from different tables or passages of the source.

Legend:
serotonin uptake = conditions: in vitro, rats; cited from earlier work
[1] = cited from earlier work
norepinephrine reuptake = conditions: in vitro, rats; cited from earlier work
[2] = cited from earlier work; remark: listed apart in the source
[3] = fasted, n=34, cited from earlier work
[4] = cited from earlier work; remark: listed apart in the source
[5] = system: COVID-19 patients who required supplemental oxygen; assay: Retrospective clinical study of dronabinol plus standard of care in hospitalized COVID-19 patients requiring oxygen (Example 1); assay type: in vivo, human
[6] = in vivo; cited from earlier work
cytokine storm = conditions: cited from earlier work
[7] = system: COVID-19-positive patients hospitalized for hypoxia; assay: Comparative analysis of dronabinol alone vs dronabinol plus fluvoxamine in COVID-19-positive patients hospitalized for hypoxia (Example 8, Table 6)
Procedure: From October 2020 through December of 2020 a single infectious disease specialist treated consecutive adult COVID-19-positive patients hospitalized for hypoxia with oral dronabinol in addition to then current standard of care which consisted of ceftriaxone, azithromycin, dexamethasone, remdesivir, subcutaneous heparin, and convalescent plasma in addition to respiratory support per standard ICU protocols. Nine patients received 2.5 mg twice orally daily and 68 patients received 5 mg orally twice daily. A retrospective control group of consecutively treated COVID-19-positive patients hospitalized for hypoxia from June 2020 through August 2020, was treated with the same standard of care.
15, 2021, twelve consecutive un-vaccinated COVID-19-positive patients hospitalized for hypoxia were treated by a single physician. They received current standard of care which consisted of ceftriaxone, azithromycin, dexamethasone, remdesivir, and Eliquis in addition to respiratory support per standard ICU protocols. […] One patient was excluded from analysis due to pre-COVID-19 oxygen dependence, and because they were still in the hospital as of this writing on their twelfth hospital day.

[8] = system: alpha adrenergic receptors; conditions: in vitro; cited from earlier work
[9] = target: sigma-1 non-opioid receptor (Homo sapiens, UniProt Q99720); conditions: compared with all pharmaceutical chemicals tested so far; cited from earlier work
Chain of sigma-1 non-opioid receptor (Q99720 whole entry): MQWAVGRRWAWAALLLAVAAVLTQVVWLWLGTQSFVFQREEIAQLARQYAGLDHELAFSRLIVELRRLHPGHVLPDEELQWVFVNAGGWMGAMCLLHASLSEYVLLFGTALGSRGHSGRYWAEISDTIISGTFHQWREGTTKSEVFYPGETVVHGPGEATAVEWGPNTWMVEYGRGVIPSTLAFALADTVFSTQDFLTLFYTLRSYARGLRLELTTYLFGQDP

dopaminergic receptors = conditions: in vitro; cited from earlier work
histaminergic receptors = conditions: in vitro; cited from earlier work
[10] = cited from earlier work; for Multiple dose elimination half-life: steady state
[11] = system: plasma protein, mostly albumin; conditions: concentration range of 20 to 2000 ng/mL, cited from earlier work
muscarinic receptors = conditions: in vitro; cited from earlier work
[12] = system: beta adrenergic receptors; conditions: in vitro; cited from earlier work
[13] = hepatic dysfunction vs healthy subjects, cross study comparison; cited from earlier work
[14] = system: neuronal uptake of serotonin; conditions: in vitro as well as in vivo; cited from earlier work
[15] = human, in vivo; cited from earlier work

## NCCO/N=C(\CCCC(=O)O)c1ccc(C(F)(F)F)cc1 [fluvoxamine acid]
Serotonin uptake
  Inhibition of serotonin uptake: weak effect
  Potency relative to the parent compound (less potent): 1-2 orders of magnitude
[1]; fluvoxamine acid together with its N-acetylated analog
  Share of urinary excretion products: about 60%
Norepinephrine reuptake
  Norepinephrine reuptake inhibition: inactive

## CCCCCc1cc(O)c2c(c1)OC(C)(C)[C@@H]1CCC(CO)=C[C@@H]21 [11-OH-delta-9-THC]
[2]; plasma
  Plasma concentration of principal active metabolite relative to Δ9-THC: approximately equal concentrations

## CCCCCc1cc(O)c2c(c1)OC(C)(C)[C@@H]1CCC(C)=C[C@@H]21 [dronabinol, (−)-(6aR,10aR)-6,6,9-trimethyl-3-pentyl-6a,7,8,10a-tetrahydro-6H-benzo[c]-chromen-1-ol]
[3]; BID Dose 2.5 mg
  AUC (0-12), Mean (SD): 2.88 (1.57) ng*hr/mL
  Cmax, Mean (SD): 1.32 (0.62) ng/mL
  Median Tmax (range): 1.00 (0.50-4.00) hr
[3]; BID Dose 5 mg
  AUC (0-12), Mean (SD): 6.16 (1.85) ng*hr/mL
  Cmax, Mean (SD): 2.96 (1.81) ng/mL
  Median Tmax (range): 2.50 (0.50-4.00) hr
[3]; BID Dose 10 mg
  AUC (0-12), Mean (SD): 15.2 (5.52) ng*hr/mL
  Cmax, Mean (SD): 7.88 (4.54) ng/mL
  Median Tmax (range): 1.50 (0.50-3.50) hr
[4]; after administration
  Duration of appetite stimulant effect: ≥ 24 h
[4]; healthy male volunteers (N=12), 210 mg/day orally in divided doses for 16 days
  Time to tolerance to cardiovascular and subjective adverse CNS effects: ≤ 12 days
[4]; patients with AIDS, Δ9-THC capsules 2.5 mg/day to 20 mg/day
  Persistence of appetite stimulant effect: sustained for up to five months
[5]; among the 77 patients in the treatment group
  Deaths: 5
[5]; vs control, p-value of 0.07, not statistically significant
  Average first peak C-reactive protein (CRP) levels, difference (lower in treatment group): 14%
[2]; following single dose administration
  Time for which low levels of metabolites are detected in urine and feces: more than 5 weeks
[2]; in vivo, po
  Oral dose recovered unchanged in the feces: Less than 5%
[2]; oral dose
  Administered dose reaching the systemic circulation: 10-20%
[2]; single oral doses
  Absorbed after oral dose: 90-95%
[2]; two-compartment model
  Initial (alpha) half-life: about 4 hours
[2]; within 72 hours
  Radio-labeled oral dose recovered from the feces: about half
[6]
  Reported fatality from overdosage: has not had a reported fatality from overdosage
Cytokine storm; animal model of cytokine storm induced ARF and/or ARDS
  Mortality: decrease mortality
Cytokine storm; animal models
  Prevention of death of animals that received a fatal dose of the biotoxin: prevent the death of one hundred percent of all animals
[7]; 2.5 mg Dronabinol, total 9 in group
  # Survived: 8
[7]; 5 mg Dronabinol, length of hospital stay
  LOS: 8.8
[7]; 5 mg Dronabinol, total 68 in group
  # Survived: 64

## COCCCC/C(=N\OCCN)c1ccc(C(F)(F)F)cc1 [fluvoxamine, 2-[(E)-[5-methoxy-1-[4-(trifluoromethyl)phenyl]pentylidene]amino]oxyethanamine]
[8]
  Affinity for alpha adrenergic receptors: no significant affinity
[9]
  Agonistic sigma-1 binding affinity: strongest agonistic sigma-1 binding affinity
Dopaminergic receptors
  Affinity for dopaminergic receptors: no significant affinity
Histaminergic receptors
  Affinity for histaminergic receptors: no significant affinity
[10]; elderly patients
  Reduction of clearance: about 50%
[10]; elderly, 50 mg
  Multiple dose elimination half-life: 17.4 h
[10]; elderly, 100 mg
  Multiple dose elimination half-life: 25.9 h
[10]; young subjects, 50 mg
  Multiple dose elimination half-life: 13.6 h
[10]; young subjects, 100 mg
  Multiple dose elimination half-life: 15.6 h
[1]; human, in vivo, po
  Mean plasma half-life at steady state: 15.6 h
[1]; in vivo
  Excreted in urine unchanged: Approximately 2%
[11]
  Bound to plasma protein: Approximately 80%
[11]; listed as Fluvoxamine
  Bound to plasma protein: 80%
Muscarinic receptors
  Affinity for muscarinic receptors: no significant affinity
[12]
  Affinity for beta adrenergic receptors: no significant affinity
[13]
  Decrease in clearance: 30%
[14]
  Serotonin reuptake inhibition: potent serotonin reuptake inhibitor

## COCCCC/C(=N\OCCN)c1ccc(C(F)(F)F)cc1 [fluvoxamine maleate]
[15]
  Time of maximum plasma concentrations at steady state: 3 to 8 h

## COCCCC/C(=N\OCCO)c1ccc(C(F)(F)F)cc1 [fluvoxamine ethanol]
[1]; fluvoxamine ethanol
  Share of urinary excretion products: about 10%
